Columns and labels:
[1] = Selectivity index, ratio of CC50 for cytotoxicity against human THP-1 cells to IC50 for antileishmanial activity against Leishmania donovani infected in human THP-1 cells; format: toxicity, cell-based; details: read-out: Ratio CC50/IC50
[2] = Cytotoxicity against human THP-1 cells assessed as cell growth inhibition; format: toxicity, cell-based
[3] = system: Leishmania donovani; experiment: Antileishmanial activity against Leishmania donovani infected in human THP-1 cells assessed as growth inhibition by intramacrophage assay; format: functional, organism-based

SMILES	selectivity ratio [1]	CC50 [2] [µM]	IC50 [3] [µM]
COc1ccc(-c2cnc(NC(=O)c3cccc(O)c3)n2C)cc1	> 1.9	> 100	54
Cn1c(-c2ccc(Cl)cc2)cnc1NC(=O)c1ccc(F)cc1	7.6	37	4.9
COc1ccc(-c2cnc(NC(=O)c3cccc([N+](=O)[O-])c3)n2C)cc1	> 1	> 100	> 100
COc1ccc(CNC(=O)NC(=O)c2ccc(F)cc2)cc1	> 1	> 50	> 50
Cn1c(-c2ccccc2)cnc1NC(=O)c1cc(-c2ccccn2)[nH]n1	> 74	> 50	0.68
Cn1c(-c2ccccc2)cnc1NC(=O)c1cccc(Cl)c1	> 5.9	> 50	8.5
COc1ccc(C(=O)Nc2ncc(-c3ccc(OC)cc3)n2C)cc1	> 1	> 100	> 100
COc1ccc(-c2ccnc(NC(=O)c3ccc(F)cc3)c2)cc1	> 1	> 100	> 100
Cn1c(-c2ccc([N+](=O)[O-])cc2)cnc1NC(=O)c1ccc(F)cc1	> 1	> 50	> 50
COc1ccc(-c2cccc(NC(=O)c3ccc(F)cc3)n2)cc1	> 1	> 100	> 100
COc1ccccc1-c1cnc(NC(=O)c2ncc[nH]2)n1C	> 1	> 50	> 50
Cn1c(-c2cccc(C#N)c2)cnc1NC(=O)c1ncc[nH]1	> 1	> 50	> 50
Cn1c(-c2ccccc2[N+](=O)[O-])cnc1NC(=O)c1ccc(F)cc1	3.2	31	9.8
Cn1c(-c2ccc(Br)cc2)cnc1NC(=O)c1ccc(F)cc1	6.5	46	7.1
Cn1c(-c2ccccc2Cl)cnc1NC(=O)c1ncc[nH]1	> 9.6	> 50	5.2
CCCCCCCCCCCCCCCCOP(=O)([O-])OCC[N+](C)(C)C [MILTEFOSINE]		> 20	0.39
COc1ccc(-c2cnc(NC(=O)c3ccc(F)cc3)n2C(C)C)cc1	> 1	> 50	> 50
COc1cccc(-c2cnc(NC(=O)c3ccc(F)cc3)n2C)c1	> 1	> 100	> 100
Cn1c(-c2ccccc2)cnc1NC(=O)c1ccccc1Cl	> 10	> 50	5
Cc1ccc(C(=O)Nc2ncc(-c3ccccc3)n2C)cc1	> 20	> 50	2.4
Cc1ccc(-c2cnc(NC(=O)c3ccc(F)cc3)n2C)cc1	4.5	60	13
COc1ccc(-c2cnc(NC(=O)c3ccc(C)cc3)n2C)cc1	> 3.4	> 100	29
Cn1c(-c2ccccc2)cnc1NC(=O)c1cccc(Br)c1	> 16	> 50	3.1
COc1ccc(-c2cnc(NC(=O)c3ccccc3Cl)n2C)cc1	> 3.8	> 50	13
COc1ccc(CN(C)C(=O)NC(=O)c2ccc(F)cc2)cc1	> 1	> 50	> 50
Cn1c(-c2ccc(C#N)cc2)cnc1NC(=O)c1ncc[nH]1	> 7.1	> 100	14
COc1ccccc1-c1cnc(NC(=O)c2ccc(F)cc2)n1C	> 1	> 100	> 100
COc1ccc(-c2cnc(NC(=O)c3ccc(O)cc3)n2C)cc1	> 1	> 100	> 100

SMILES	selectivity ratio [1]	CC50 [2] [µM]	IC50 [3] [µM]
Cc1cccc(C(=O)Nc2ncc(-c3ccccc3)n2C)c1	> 14	> 50	3.5
COc1ccc(-c2cn(C)c(NC(=O)c3ccc(F)cc3)n2)cc1	> 1	> 50	> 50
Cn1c(-c2ccccc2Br)cnc1NC(=O)c1ccc(F)cc1	> 1	> 100	> 100
Cn1c(-c2ccccc2)cnc1NC(=O)c1ccc(Br)cc1	> 2.7	> 100	37
Cn1c(-c2cccc(Br)c2)cnc1NC(=O)c1ccc(F)cc1	> 9.3	> 50	5.4
COc1ccc(-c2cnc(NC(=O)c3ccc(Cl)cc3)n2C)cc1	> 12	> 100	8.1
Cn1c(-c2cccc(Cl)c2)cnc1NC(=O)c1ccc(F)cc1	> 2.3	> 50	22
Cn1c(-c2ccccc2)cnc1NC(=O)c1ccccc1	> 22	> 100	4.5
Cn1c(-c2cccc(F)c2)cnc1NC(=O)c1ccc(F)cc1	4.8	58	12
COc1ccc(-c2cnc(NC(=O)c3cccc(Cl)c3)n2C)cc1	> 2.8	> 28	> 10
COc1ccc(-c2cnc(NC(=O)c3ccccc3Br)n2C)cc1	> 1	> 100	> 100
Cn1cc(-c2ccccc2)nc1NC(=O)c1ccc(F)cc1	> 1	> 50	> 50
Cn1c(-c2cccc(C#N)c2)cnc1NC(=O)c1ccc(F)cc1	> 6.3	> 100	16
COc1ccc(-c2cnc(NC(=O)c3ccccn3)n2C)cc1	> 7.7	> 100	13
COc1ccc(-c2cnc(NC(=O)C3CCOCC3)n2C)cc1	> 1	> 100	> 100
Cn1c(-c2cccc([N+](=O)[O-])c2)cnc1NC(=O)c1ccc(F)cc1	> 1	> 50	> 50
O=C(Nc1ncc(-c2ccccc2)o1)c1ccc(Cl)cc1	30	10	0.33
Cc1ccccc1-c1cnc(NC(=O)c2ccc(F)cc2)n1C	> 13	> 50	3.9
COc1ccc(-c2cnc(NC(=O)c3ccc(F)cc3)n2-c2ccccc2)cc1	> 2.9	8.8	6.1
Cc1ccc(C(=O)Nc2ncc(-c3ccccc3)o2)cc1	19	26	1.4
COc1ccc(-c2cnc(NC(=O)CCc3ccccc3)n2C)cc1	> 4.5	> 100	22
Cn1c(-c2ccccc2Cl)cnc1NC(=O)c1ccc(F)cc1	> 3.3	> 50	15
C[C@@H]1[C@H](O)[C@@H](C)/C=C/C=C/C=C/C=C/C=C/C=C/C=C/[C@H](O[C@@H]2O[C@H](C)[C@@H](O)[C@H](N)[C@@H]2O)C[C@@H]2O[C@](O)(C[C@@H](O)C[C@@H](O)[C@H](O)CC[C@@H](O)C[C@@H](O)CC(=O)O[C@H]1C)C[C@H](O)[C@H]2C(=O)O [AMPHOTERICIN B]		6	0.12
Cn1c(-c2ccccc2)cnc1NC(=O)c1ccc(Cl)cc1	> 8.3	> 100	12
COc1ccc(-c2cnc(NC(=O)c3ccccc3OC)n2C)cc1	> 3	> 100	33
COc1ccc(-c2cnc(NC(=O)c3ccccc3[N+](=O)[O-])n2C)cc1	> 1	> 50	> 50
CCCn1c(-c2ccc(OC)cc2)cnc1NC(=O)c1ccc(F)cc1	> 1	> 100	18
